Results published in ChEMBL document CHEMBL1201862, “PubChem BioAssay data set” (2004).
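Where inhibition never reached the appropriate level, the endpoint shown equals the highest concentration tested. Otherwise, values were interpolated linearly from a five-concentration, 48-hour dose response in 96-well plates. Abbreviation: GI50, concentration required for 50% inhibition of growth.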 The source made the active and inactive calls. Rule as the data show it: active = GI50 up to about 1.1 µM and inactive = higher.

Assays:
Assay in all cases: NCI-60 cell line screen, 48 h
SNB-75 = system: SNB-75
UACC-257 = system: UACC-257
MDA-N = system: MDA-N
OVCAR-8 = system: OVCAR-8
SK-OV-3 = system: SK-OV-3
HCT-15 = system: HCT-15
OVCAR-3 = system: OVCAR-3
OVCAR-5 = system: OVCAR-5
CAKI-1 = system: CAKI-1
SR = system: SR
786-0 = system: 786-0
MOLT-4 = system: MOLT-4
UACC-62 = system: UACC-62
MCF7 = system: MCF7
KM12 = system: KM12
HOP-62 = system: HOP-62
MDA-MB-231 = system: MDA-MB-231
SN12C = system: SN12C
U-251 = system: U-251
BT-549 = system: BT-549
HCT-116 = system: HCT-116
NCI-H460 = system: NCI-H460
ACHN = system: ACHN
Hs-578T = system: Hs-578T
SK-MEL-5 = system: SK-MEL-5
SK-MEL-28 = system: SK-MEL-28
HL-60 = system: HL-60
MDA-MB-435 = system: MDA-MB-435
PC-3 = system: PC-3
TK-10 = system: TK-10
SK-MEL-2 = system: SK-MEL-2
SF-295 = system: SF-295
IGROV-1 = system: IGROV-1
Malme-3M = system: Malme-3M
T47D = system: T47D
HT-29 = system: HT-29
NCI/ADR-RES = system: NCI/ADR-RES
M14 = system: M14
OVCAR-4 = system: OVCAR-4
NCI-H522 = system: NCI-H522
SF-539 = system: SF-539
EKVX = system: EKVX
HOP-92 = system: HOP-92
COLO 205 = system: COLO 205
K562 = system: K562
NCI-H23 = system: NCI-H23
NCI-H226 = system: NCI-H226
A549 = system: A549
RXF 393 = system: RXF 393
SW-620 = system: SW-620
DU-145 = system: DU-145
SNB-19 = system: SNB-19
A498 = system: A498
LOX IMVI = system: LOX IMVI
RPMI-8226 = system: RPMI-8226
SF-268 = system: SF-268
CCRF-CEM = system: CCRF-CEM
HCC 2998 = system: HCC 2998
UO-31 = system: UO-31

Measured: GI50

COc1ccc(OC)c(-c2cc(C(=O)O)c3cc4ccccc4cc3n2)c1
> 100 µM: HCT-15
inactive: SNB-75 > 100 µM | UACC-257 > 100 µM | MDA-N > 100 µM | OVCAR-8 > 100 µM | SK-OV-3 > 100 µM | OVCAR-3 > 100 µM | OVCAR-5 > 100 µM | CAKI-1 > 100 µM | SR > 100 µM | 786-0 > 100 µM | MOLT-4 > 100 µM | UACC-62 > 100 µM | MCF7 > 100 µM | KM12 > 100 µM | HOP-62 > 100 µM | MDA-MB-231 > 100 µM | SN12C > 100 µM | U-251 > 100 µM | BT-549 > 100 µM | HCT-116 > 100 µM | NCI-H460 > 100 µM | ACHN > 100 µM | Hs-578T > 100 µM | SK-MEL-5 > 100 µM | SK-MEL-28 > 100 µM | HL-60 > 100 µM | MDA-MB-435 > 100 µM | PC-3 > 100 µM | TK-10 > 100 µM | SK-MEL-2 > 100 µM | SF-295 > 100 µM | IGROV-1 > 100 µM | Malme-3M > 100 µM | T47D > 100 µM | HT-29 > 100 µM | NCI/ADR-RES > 100 µM | M14 > 100 µM | OVCAR-4 > 100 µM | NCI-H522 > 100 µM | SF-539 > 100 µM | EKVX > 100 µM | HOP-92 > 100 µM | COLO 205 > 100 µM | K562 > 100 µM | NCI-H23 > 100 µM | NCI-H226 37.3 µM | A549 > 100 µM | RXF 393 > 100 µM | SW-620 > 100 µM | DU-145 > 100 µM | SNB-19 > 100 µM | A498 > 100 µM | LOX IMVI > 100 µM | RPMI-8226 > 100 µM | SF-268 > 100 µM

C[C@H]1CC[C@H]([C@@H](C)[C@H]2[C@@H](O)C[C@H]3[C@@H]4CC[C@H]5C[C@@H](O)CC[C@]5(C)[C@H]4CC[C@]23C)NC1
17 µM: HCT-15
inactive: UACC-257 18.4 µM | MDA-N 21.3 µM | OVCAR-8 15 µM | SK-OV-3 15.9 µM | CCRF-CEM 5.53 µM | OVCAR-3 18.7 µM | OVCAR-5 19.3 µM | CAKI-1 16.1 µM | SR 6.34 µM | 786-0 18.9 µM | MOLT-4 9.66 µM | UACC-62 14.6 µM | MCF7 21.9 µM | KM12 15.2 µM | HOP-62 23.7 µM | MDA-MB-231 21.2 µM | SN12C 16.3 µM | U-251 15.8 µM | BT-549 17.5 µM | HCC 2998 18.6 µM | HCT-116 15.6 µM | NCI-H460 20.2 µM | ACHN 21.2 µM | Hs-578T 27.1 µM | SK-MEL-5 21.3 µM | SK-MEL-28 18.7 µM | HL-60 4.45 µM | MDA-MB-435 16.7 µM | PC-3 12.4 µM | TK-10 18.3 µM | SK-MEL-2 19.6 µM | SF-295 16.9 µM | IGROV-1 19.2 µM | Malme-3M 15.7 µM | T47D 12.6 µM | HT-29 18.1 µM | NCI/ADR-RES 14.7 µM | M14 24.2 µM | OVCAR-4 15.8 µM | NCI-H522 15.8 µM | SF-539 23.6 µM | EKVX 16.3 µM | HOP-92 14.5 µM | COLO 205 19.6 µM | NCI-H23 15.5 µM | NCI-H226 18.1 µM | A549 17 µM | RXF 393 20.6 µM | SW-620 18.7 µM | DU-145 16.2 µM | SNB-19 23.5 µM | A498 17.4 µM | LOX IMVI 19.2 µM | RPMI-8226 7.31 µM | SF-268 23.1 µM | UO-31 13.9 µM

C[C@]12O[C@@]3(C)O[C@@]3(C)[C@]3(C)O[C@]3(C)[C@@]1(C)O2
> 100 µM: HCT-15
active: SNB-75 0.598 µM
inactive: UACC-257 > 100 µM | MDA-N > 100 µM | OVCAR-8 > 100 µM | SK-OV-3 > 100 µM | OVCAR-5 > 100 µM | CAKI-1 > 100 µM | SR > 100 µM | 786-0 > 100 µM | MOLT-4 > 100 µM | UACC-62 > 100 µM | MCF7 > 100 µM | KM12 > 100 µM | HOP-62 > 100 µM | MDA-MB-231 > 100 µM | SN12C > 100 µM | U-251 > 100 µM | BT-549 > 100 µM | HCT-116 > 100 µM | ACHN > 100 µM | Hs-578T > 100 µM | SK-MEL-5 > 100 µM | SK-MEL-28 > 100 µM | MDA-MB-435 > 100 µM | PC-3 > 100 µM | TK-10 > 100 µM | SK-MEL-2 > 100 µM | SF-295 > 100 µM | Malme-3M > 100 µM | T47D 1.22 µM | HT-29 > 100 µM | NCI/ADR-RES > 100 µM | M14 > 100 µM | OVCAR-4 > 100 µM | NCI-H522 > 100 µM | EKVX > 100 µM | HOP-92 > 100 µM | COLO 205 > 100 µM | K562 > 100 µM | NCI-H23 > 100 µM | NCI-H226 > 100 µM | A549 > 100 µM | DU-145 > 100 µM | SNB-19 > 100 µM | A498 > 100 µM | LOX IMVI > 100 µM | SF-268 > 100 µM | UO-31 > 100 µM

O=C(O)C1Cc2c([nH]c3ccccc23)C(CCCCO)N1 (centres undefined)
inactive: UACC-257 > 100 µM | MDA-N > 100 µM | OVCAR-8 > 100 µM | SK-OV-3 > 100 µM | CCRF-CEM > 100 µM | OVCAR-3 > 100 µM | OVCAR-5 > 100 µM | CAKI-1 > 100 µM | SR > 100 µM | 786-0 > 100 µM | MOLT-4 > 100 µM | UACC-62 > 100 µM | MCF7 > 100 µM | KM12 > 100 µM | HOP-62 > 100 µM | MDA-MB-231 > 100 µM | SN12C > 100 µM | U-251 > 100 µM | BT-549 > 100 µM | HCT-116 > 100 µM | NCI-H460 > 100 µM | ACHN > 100 µM | Hs-578T > 100 µM | SK-MEL-5 > 100 µM | SK-MEL-28 > 100 µM | HL-60 > 100 µM | MDA-MB-435 > 100 µM | PC-3 > 100 µM | TK-10 > 100 µM | SK-MEL-2 > 100 µM | SF-295 > 100 µM | IGROV-1 > 100 µM | Malme-3M > 100 µM | T47D > 100 µM | HT-29 > 100 µM | NCI/ADR-RES > 100 µM | M14 > 100 µM | OVCAR-4 > 100 µM | NCI-H522 > 100 µM | SF-539 > 100 µM | EKVX > 100 µM | HOP-92 > 100 µM | COLO 205 > 100 µM | K562 > 100 µM | NCI-H23 > 100 µM | NCI-H226 > 100 µM | A549 > 100 µM | RXF 393 > 100 µM | SW-620 > 100 µM | DU-145 > 100 µM | SNB-19 > 100 µM | A498 > 100 µM | LOX IMVI > 100 µM | RPMI-8226 > 100 µM | SF-268 > 100 µM | UO-31 > 100 µM
> 100 µM: HCT-15

COc1ccc(CNC2=N/C(=C\c3ccccc3Cl)C(=O)N2C)cc1
28.4 µM: HCT-15
inactive: SNB-75 11.8 µM | UACC-257 33.6 µM | MDA-N 18.8 µM | OVCAR-8 27.1 µM | SK-OV-3 51.2 µM | OVCAR-3 22.8 µM | OVCAR-5 27.9 µM | CAKI-1 30.7 µM | SR 25.2 µM | 786-0 19.7 µM | MOLT-4 27.1 µM | UACC-62 17.5 µM | MCF7 25.5 µM | KM12 20.4 µM | HOP-62 47.8 µM | MDA-MB-231 26.4 µM | SN12C 19.6 µM | U-251 17.9 µM | BT-549 36.8 µM | HCC 2998 21.8 µM | HCT-116 18.4 µM | NCI-H460 30.1 µM | ACHN 29.6 µM | Hs-578T 57.4 µM | SK-MEL-5 19.9 µM | SK-MEL-28 33 µM | HL-60 25.8 µM | MDA-MB-435 19 µM | PC-3 28.1 µM | TK-10 37.7 µM | SK-MEL-2 19.3 µM | SF-295 31.7 µM | IGROV-1 24.9 µM | Malme-3M 33 µM | T47D 14.2 µM | HT-29 22.9 µM | NCI/ADR-RES 28 µM | M14 17.9 µM | OVCAR-4 23.9 µM | NCI-H522 20.5 µM | SF-539 24.6 µM | EKVX 28.3 µM | HOP-92 23.1 µM | COLO 205 24.9 µM | K562 25.5 µM | NCI-H226 49.2 µM | A549 31.1 µM | RXF 393 31.8 µM | SW-620 19.5 µM | DU-145 27.7 µM | SNB-19 38.6 µM | A498 25.7 µM | LOX IMVI 20.1 µM | SF-268 45 µM
